Tests used:
D-amino acid oxidase [1] = molecular target: T1, D-amino acid oxidase (Sungouiella intermedia, UniProt A0A1L0GHW3); test: Substrate specificity of purified D-amino acid oxidase; type: biochemical, Candida intermedia NBRC0761; details: purified enzyme; activity to D-Phe as 100%; each substrate in place of DL-phenylalanine
Description: The activity of the D-amino acid oxidase was measured by quantifying hydrogen peroxide produced in the reaction by an enzyme method using peroxidase. Hydrogen peroxide was quantified by an enzyme method as follows. 250 μl of a chromogenic solution containing 50 mM DL-phenylalanine, 0.80 mM 4-aminoantipyrine, 1.31 mM N-ethyl-N-(2-hydroxy-3-sulfopropyl)-m-toluidine, 6 u/ml peroxidase (manufactured by TOYOBO Inc.) and 50 mM Tris-hydrochloric acid buffer (pH 8.0) was mixed with 50 μl of an appropriately diluted enzyme solution, and the mixture was reacted at 30° C. for 30 min. Absorption at 555 nm was measured, and the amount of hydrogen peroxide produced in the reaction mixture was quantified based on the analytical curve prepared in advance. The amount of the enzyme that produced 1 μmol of hydrogen peroxide in 1 minute was defined as 1 unit. In addition, protein was quantified according to a Bradford method using BSA as a standard protein. The specific activity of the purified D-amino acid oxidase was 44.8 units/mg protein (30° C.).
(§1) Moreover, the D-amino acid oxidase activity for examining the properties of the enzyme shown below was measured as follows. 250 μl of a substrate solution containing 100 mM DL-phenylalanine and 50 mM Tris-hydrochloric acid buffer (pH 8.0) was maintained at 30° C. (each temperature for determining the range of operative temperature and the optimal temperature) for 5 min, mixed with 50 μl of an appropriately diluted enzyme solution, and the mixture was reacted at 30° C. (each temperature for determining the range of operative temperature and the optimal temperature) for 5 min. 10 μl of 3N HCl was added to stop the reaction. Then, 500 μl of a chromogenic solution containing 0.80 mM 4-aminoantipyrine, 1.31 mM N-ethyl-N-(2-hydroxy-3-sulfopropyl)-m-toluidine, 6 u/ml peroxidase (manufactured by TOYOBO Inc.) and 50 mM Tris-hydrochloric acid buffer (pH 8.0), which was maintained at 30° C. for 5 min, was mixed with 100 μl of the aforementioned reaction mixture. Absorption at 555 nm was measured, and the amount of hydrogen peroxide produced in the reaction mixture was quantified based on the analytical curve prepared in advance.
The substrate specificity of the purified D-amino acid oxidase was examined. The substrate DL-phenylalanine used in the aforementioned enzyme activity assay was changed to each substrate, and the enzyme activity was measured.

D-amino acid oxidase [2] = molecular target: T1, D-amino acid oxidase; test: Specific activity of purified D-amino acid oxidase (hydrogen peroxide quantified with peroxidase); type: biochemical, Candida intermedia NBRC0761; details: 30° C.; 1 unit = 1 μmol hydrogen peroxide in 1 minute; DL-phenylalanine, pH 8.0
Description: An enzyme solution is appropriately diluted, mixed with a chromogenic solution containing 50 mM DL-phenylalanine, 0.80 mM 4-aminoantipyrine, 1.31 mM N-ethyl-N-(2-hydroxy-3-sulfopropyl)-m-toluidine, 6 u/ml peroxidase (manufactured by TOYOBO Inc.), and 50 mM Tris-hydrochloric acid buffer (pH 8.0) at 1:5, and reacted at 30° C. for 30 min. The absorbance at 555 nm is measured, and the amount of hydrogen peroxide produced in the reaction mixture is quantified based on the analytical curve prepared in advance. In the embodiment, unless otherwise specified, this method was used to assay the D-amino acid oxidase activity.
The activity of the D-amino acid oxidase was measured by quantifying hydrogen peroxide produced in the reaction by an enzyme method using peroxidase. Hydrogen peroxide was quantified by an enzyme method as follows. […] Absorption at 555 nm was measured, and the amount of hydrogen peroxide produced in the reaction mixture was quantified based on the analytical curve prepared in advance. […] In addition, protein was quantified according to a Bradford method using BSA as a standard protein. […]

D-amino acid oxidase [3] = molecular target: T1, D-amino acid oxidase; test: Range of reaction temperature and pH, optimal temperature and pH; type: biochemical, Candida intermedia NBRC0761
Description: as §1
The range of reaction temperature and the optimal temperature were examined.
The range of reaction pH and the optimal pH were examined. […] The enzyme was active at least within the examined range of pH 6-10.5, and the optimal pH was 8.5-9.5.

D-amino acid oxidase [4] = molecular target: T1, D-amino acid oxidase; test: Temperature stability and pH stability (residual activity); type: physicochemical, Candida intermedia NBRC0761
Description: as §1
The temperature stability of the enzyme was measured based on the residual activity after a treatment at each temperature for 10 min.
The pH stability was examined. […]

[5] = substrate: N[C@H](Cc1ccccc1)C(=O)O; test: Measurement of Km value relative to D-Phe; type: biochemical, Candida intermedia NBRC0761; details: other: D-Phe as substrate, various substrate concentrations, reciprocal plot (FIG. 2); pH 8.0; 30.0 °C
Description: as §1
Using D-Phe as a substrate, the activity was measured at various substrate concentrations and the Km value relative to D-Phe was determined. From the results shown in FIG. 2, the Km value relative to D-Phe was about 1.7 (not less than 1.6 and not more than 1.8) mM.

NC(CCBr)C(=O)O (racemic) [DL-2-amino-4-Br-butyric acid]
relative activity (%) (D-amino acid oxidase [1]): 17.2%

O=C(O)[C@H]1CCCN1 [D-Pro]
relative activity (%) (D-amino acid oxidase [1]): 44.3%

NC(=O)CC[C@@H](N)C(=O)O [D-Gln]
relative activity (%) (D-amino acid oxidase [1]): 5.8%

N[C@H](Cc1c[nH]cn1)C(=O)O [D-His]
relative activity (%) (D-amino acid oxidase [1]): 4.2%

NCC(=O)O [Gly]
relative activity (%) (D-amino acid oxidase [1]): 0.0%

CSCC[C@H](N)C(=O)O [L-Met]
relative activity (%) (D-amino acid oxidase [1]): 0.0%

NCCCC[C@@H](N)C(=O)O [D-Lys]
relative activity (%) (D-amino acid oxidase [1]): 0.0%

CCC[C@H](N)C(=O)O [L-Norvaline]
relative activity (%) (D-amino acid oxidase [1]): 0.0%

CC(C)[C@@H](N)C(=O)O [D-Val]
relative activity (%) (D-amino acid oxidase [1]): 27.3%

NC(=O)C[C@@H](N)C(=O)O [D-Asn]
relative activity (%) (D-amino acid oxidase [1]): 5.8%

C[C@H](O)[C@@H](N)C(=O)O [D-Thr]
relative activity (%) (D-amino acid oxidase [1]): 4.7%

N[C@H](CO)C(=O)O [D-Ser]
relative activity (%) (D-amino acid oxidase [1]): 11.3%

CCCC(N)C(=O)O (racemic) [DL-Norvaline]
relative activity (%) (D-amino acid oxidase [1]): 93.8%

CC[C@@H](C)[C@@H](N)C(=O)O [D-Ile]
relative activity (%) (D-amino acid oxidase [1]): 16.6%

N[C@H](Cc1ccc(F)cc1)C(=O)O [D-p-F-Phe]
relative activity (%) (D-amino acid oxidase [1]): 167.2%

N[C@@H](C(=O)O)c1ccc(O)c(O)c1 [D-3,4-dihydroxy-phenylglycine]
relative activity (%) (D-amino acid oxidase [1]): 5.7%

N[C@H](CC(=O)O)C(=O)O [D-Asp]
relative activity (%) (D-amino acid oxidase [1]): 0.0%

N[C@H](CCC(=O)O)C(=O)O [D-Glu]
relative activity (%) (D-amino acid oxidase [1]): 0.0%

NC(N)=NCCCC(N)C(=O)O [D-Arg]
relative activity (%) (D-amino acid oxidase [1]): 0.05%

O=C(O)[C@@H]1CCCN1 [L-Pro]
relative activity (%) (D-amino acid oxidase [1]): 0.0%

C[C@H](N)C(=O)O [L-Ala]
relative activity (%) (D-amino acid oxidase [1]): 0.0%

CC(C)C[C@@H](N)C(=O)O [D-Leu]
relative activity (%) (D-amino acid oxidase [1]): 96.7%

CSCC[C@@H](N)C(=O)O [D-Met]
relative activity (%) (D-amino acid oxidase [1]): 100.5%

C[C@@H](N)C(=O)O [D-Ala]
relative activity (%) (D-amino acid oxidase [1]): 129.1%

CCC(C(=O)O)c1ccccc1 (racemic) [DL-α-phenylbutyric acid]
relative activity (%) (D-amino acid oxidase [1]): 194.7%

B1: D-amino acid oxidase (Sungouiella intermedia) (protein)
chain: MSEYVIVGSGIIGLYTGYKLLESGVPGESITVEAEFLPGDESIKYTSPYAGGNFSGITGDDPDSLKFDKHTYENLPKLQKLLGGPLCGLDMLPATEIWDNVKSKKIDSLKQYLKDYQEIEQEELPEGAKFGVKFTTWNFNCPKFLSNVQKYLLSKNVTFIRKNLTHITQAFGPATKCVFNCTGNGARFLGGVQDAKVYPTRGQVVVIKAPHINENMIRWGDNYATYIIKRPYSHDQLILGGFLQKDDWTPDTLSEQTEDILFRTTNLLPKILNQNPHGPNIEDLEIVRVVAGLRPSRHGGVRIEKEVLDGKLLIHNYGAGGYGYQSGLGMADKAVKLALGQSKL
specific activity (D-amino acid oxidase [2]): 44.8 units/mg protein
optimal pH (D-amino acid oxidase [3]; FIG. 4): 8.5-9.5 pH
range of reaction temperature (highly active) (D-amino acid oxidase [3]; examined range, activity at 30° C. as 100% (FIG. 3)): 20-60 °C
range of reaction pH (active) (D-amino acid oxidase [3]; examined range, activity at pH 8.0 as 100% (FIG. 4)): 6-10.5 pH
pH stability (comparatively stable at) (D-amino acid oxidase [4]; residual activity after 30° C. for 16 hr at each pH (FIG. 6)): 7.8-8.7 pH
temperature stability (stable at) (D-amino acid oxidase [4]; residual activity after treatment at each temperature for 10 min (FIG. 5)): ≤ 40 °C
Km [5]: 1.7 mM
